Measured values published in PubChem BioAssay (NCI).
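Tested at 5 concentrations; 48 h exposure; 96-well plates; endpoints linearly interpolated, else capped at highest concentration. GI50 is the concentration that inhibits growth by half. Definition used: TGI = concentration required for complete inhibition of growth.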

Experiments:
Test in all cases: NCI anticancer screen, dose series, 48 h
[1] = test system: 786-0 renal
[2] = test system: A498 renal
[3] = test system: A549 NSCLC
[4] = test system: ACHN renal
[5] = test system: BT-549 breast
[6] = test system: CAKI-1 renal
[7] = test system: CCRF-CEM leukemia
[8] = test system: COLO 205 colon
[9] = test system: DU-145 prostate
[10] = test system: HCC-2998 colon
[11] = test system: HCT-116 colon
[12] = test system: HCT-15 colon
[13] = test system: HL-60(TB) leukemia
[14] = test system: HOP-62 NSCLC
[15] = test system: HOP-92 NSCLC
[16] = test system: HS 578T breast
[17] = test system: HT29 colon
[18] = test system: IGROV1 ovarian
[19] = test system: K-562 leukemia
[20] = test system: KM12 colon
[21] = test system: LOX IMVI melanoma
[22] = test system: M14 melanoma
[23] = test system: MALME-3M melanoma
[24] = test system: MCF7 breast
[25] = test system: MDA-MB-231 breast
[26] = test system: MDA-MB-435
[27] = test system: MOLT-4 leukemia
[28] = test system: NCI-H226 lung
[29] = test system: NCI-H23 lung
[30] = test system: NCI-H460 lung
[31] = test system: NCI-H522 lung
[32] = test system: NCI/ADR-RES ovarian
[33] = test system: OVCAR-3 ovarian
[34] = test system: OVCAR-4 ovarian
[35] = test system: OVCAR-5 ovarian
[36] = test system: OVCAR-8 ovarian
[37] = test system: RPMI-8226 leukemia
[38] = test system: RXF 393 renal
[39] = test system: SF-268 CNS
[40] = test system: SF-295 CNS
[41] = test system: SF-539 CNS
[42] = test system: SK-MEL-28 melanoma
[43] = test system: SK-MEL-5 melanoma
[44] = test system: SK-OV-3 ovarian
[45] = test system: SN12C renal
[46] = test system: SNB-19 CNS
[47] = test system: SNB-75 CNS
[48] = test system: SR leukemia
[49] = test system: SW-620 colon
[50] = test system: T-47D breast
[51] = test system: TK-10 renal
[52] = test system: U251 CNS
[53] = test system: UACC-257 melanoma
[54] = test system: UACC-62 melanoma
[55] = test system: UO-31 renal
[56] = test system: PC-3 prostate
[57] = test system: SK-MEL-2 melanoma

COc1ccc(Nc2nccc(N3CCN(c4c5ccc(Cl)cc5nc5ccc(OC)cc45)CC3)n2)cc1
GI50 [1]: 5.4 µM | TGI [1]: 47.2 µM | GI50 [2]: 2.4 µM | TGI [2]: 31 µM | GI50 [3]: 7.51 µM | TGI [3]: > 100 µM | GI50 [4]: 6.86 µM | TGI [4]: > 100 µM | GI50 [5]: 14.4 µM | TGI [5]: > 100 µM | GI50 [6]: 8.93 µM | TGI [6]: > 100 µM | GI50 [7]: 2.77 µM | TGI [7]: > 100 µM | GI50 [8]: 16.9 µM | TGI [8]: > 100 µM | GI50 [9]: 28.7 µM | TGI [9]: > 100 µM | GI50 [10]: 23.5 µM | TGI [10]: > 100 µM | GI50 [11]: 3.87 µM | TGI [11]: > 100 µM | GI50 [12]: 4.48 µM | TGI [12]: > 100 µM | GI50 [13]: 7.22 µM | TGI [13]: > 100 µM | GI50 [14]: 38.7 µM | TGI [14]: > 100 µM | GI50 [15]: 3.55 µM | TGI [15]: 77.1 µM | GI50 [16]: 5.78 µM | TGI [16]: > 100 µM | GI50 [17]: 6.61 µM | TGI [17]: > 100 µM | GI50 [18]: 42.4 µM | TGI [18]: > 100 µM | GI50 [19]: 3.06 µM | TGI [19]: > 100 µM | GI50 [20]: 6.96 µM | TGI [20]: > 100 µM | GI50 [21]: 6.11 µM | TGI [21]: > 100 µM | GI50 [22]: 33 µM | TGI [22]: > 100 µM | GI50 [23]: 92 µM | TGI [23]: > 100 µM | GI50 [24]: 3.67 µM | TGI [24]: > 100 µM | GI50 [25]: 4.63 µM | TGI [25]: > 100 µM | GI50 [26]: 8.28 µM | TGI [26]: > 100 µM | GI50 [27]: 3.05 µM | TGI [27]: > 100 µM | GI50 [28]: 29.7 µM | TGI [28]: > 100 µM | GI50 [29]: 22.7 µM | TGI [29]: > 100 µM | GI50 [30]: 8.13 µM | TGI [30]: > 100 µM | GI50 [31]: 1.78 µM | TGI [31]: 5.09 µM | GI50 [32]: 7.41 µM | TGI [32]: > 100 µM | GI50 [33]: 11.1 µM | TGI [33]: > 100 µM | GI50 [34]: 18.2 µM | TGI [34]: > 100 µM | GI50 [35]: > 100 µM | TGI [35]: > 100 µM | GI50 [36]: 6.53 µM | TGI [36]: > 100 µM | GI50 [37]: 3.73 µM | TGI [37]: 28.1 µM | GI50 [38]: 1.78 µM | TGI [38]: 6.8 µM | GI50 [39]: 11.8 µM | TGI [39]: > 100 µM | GI50 [40]: 10.7 µM | TGI [40]: 42.3 µM | GI50 [41]: 22.7 µM | TGI [41]: > 100 µM | GI50 [42]: 39.5 µM | TGI [42]: > 100 µM | GI50 [43]: 16.1 µM | TGI [43]: > 100 µM | GI50 [44]: 53.1 µM | TGI [44]: > 100 µM | GI50 [45]: 6.06 µM | TGI [45]: > 100 µM | GI50 [46]: 18.5 µM | TGI [46]: > 100 µM | GI50 [47]: 5.61 µM | TGI [47]: 46.7 µM | GI50 [48]: 2.92 µM | TGI [48]: > 100 µM | GI50 [49]: 7.19 µM | TGI [49]: > 100 µM | GI50 [50]: 2.99 µM | TGI [50]: 44.7 µM | GI50 [51]: 11.5 µM | TGI [51]: > 100 µM | GI50 [52]: 4.36 µM | TGI [52]: > 100 µM | GI50 [53]: > 100 µM | TGI [53]: > 100 µM | GI50 [54]: 16.8 µM | TGI [54]: > 100 µM | GI50 [55]: 8.26 µM | TGI [55]: > 100 µM

Fc1ccc2nc(-c3cc(-c4ccc5c(c4)OCO5)n[nH]3)[nH]c2c1
GI50 [1]: 5.89 µM | TGI [1]: > 80 µM | GI50 [2]: 3.27 µM | TGI [2]: > 100 µM | GI50 [3]: 2.51 µM | TGI [3]: 13.8 µM | GI50 [4]: 2.74 µM | TGI [4]: > 25.4 µM | GI50 [5]: 1.48 µM | TGI [5]: > 25.9 µM | GI50 [6]: 2.44 µM | TGI [6]: > 55.7 µM | GI50 [7]: 2.62 µM | TGI [7]: > 44.7 µM | GI50 [8]: 9.22 µM | TGI [8]: > 66.1 µM | GI50 [9]: 5.84 µM | TGI [9]: > 53.1 µM | GI50 [10]: 5.56 µM | TGI [10]: > 72.8 µM | GI50 [11]: 3.51 µM | TGI [11]: > 32.5 µM | GI50 [12]: 3.27 µM | TGI [12]: > 42.4 µM | GI50 [13]: 3.09 µM | TGI [13]: 55.5 µM | GI50 [14]: 5.44 µM | TGI [14]: > 43.4 µM | GI50 [15]: 1.87 µM | TGI [15]: 8.79 µM | GI50 [16]: 9.53 µM | TGI [16]: > 100 µM | GI50 [17]: 5.06 µM | TGI [17]: > 37.8 µM | GI50 [18]: 3.79 µM | TGI [18]: > 100 µM | GI50 [19]: 4.35 µM | TGI [19]: > 100 µM | GI50 [20]: 2.49 µM | TGI [20]: > 32 µM | GI50 [21]: 2.18 µM | TGI [21]: 10.4 µM | GI50 [22]: 2.78 µM | TGI [22]: > 32.5 µM | GI50 [23]: 2.75 µM | TGI [23]: > 100 µM | GI50 [24]: 3.84 µM | TGI [24]: > 100 µM | GI50 [25]: 2.01 µM | TGI [25]: 6.59 µM | GI50 [26]: 4.49 µM | TGI [26]: > 71.7 µM | GI50 [27]: 2.56 µM | TGI [27]: > 69.4 µM | GI50 [28]: 3.92 µM | TGI [28]: 40.5 µM | GI50 [29]: 6.58 µM | TGI [29]: > 93.8 µM | GI50 [30]: 4.22 µM | TGI [30]: > 40.2 µM | GI50 [31]: 2.61 µM | TGI [31]: 13 µM | GI50 [32]: 3.99 µM | TGI [32]: > 100 µM | GI50 [33]: 3.29 µM | TGI [33]: 18.3 µM | GI50 [34]: 1.37 µM | TGI [34]: 4.8 µM | GI50 [35]: 35.5 µM | TGI [35]: > 100 µM | GI50 [36]: 2.99 µM | TGI [36]: 16 µM | GI50 [56]: 3.61 µM | TGI [56]: > 82.3 µM | GI50 [37]: 1.17 µM | TGI [37]: 8.26 µM | GI50 [38]: 2.81 µM | TGI [38]: 32.1 µM | GI50 [39]: 5.22 µM | TGI [39]: > 54.9 µM | GI50 [40]: 4.99 µM | TGI [40]: > 81.3 µM | GI50 [41]: 3.24 µM | TGI [41]: 31.2 µM | GI50 [57]: 2.87 µM | TGI [57]: 17.1 µM | GI50 [42]: 8.61 µM | TGI [42]: 53.2 µM | GI50 [43]: 1.56 µM | TGI [43]: 3.14 µM | GI50 [44]: 7.95 µM | TGI [44]: 26.5 µM | GI50 [45]: 4.59 µM | TGI [45]: > 100 µM | GI50 [46]: > 32.5 µM | TGI [46]: > 100 µM | GI50 [47]: 2.8 µM | TGI [47]: 13.8 µM | GI50 [48]: 3.58 µM | TGI [48]: > 100 µM | GI50 [49]: 5.68 µM | TGI [49]: > 43.1 µM | GI50 [50]: 3.31 µM | TGI [50]: 52.1 µM | GI50 [51]: 7.3 µM | TGI [51]: > 45.1 µM | GI50 [52]: 2.49 µM | TGI [52]: > 35.8 µM | GI50 [53]: 8.91 µM | TGI [53]: > 100 µM | GI50 [54]: 4.37 µM | TGI [54]: > 52.2 µM | GI50 [55]: 2.5 µM | TGI [55]: > 24 µM
